In ChEMBL document CHEMBL4651402, “Screening of ~5500 FDA-approved drugs and clinical candidates for anti-SARS-CoV-2 activity” (2021):

Tested on: SARS-CoV-2
Experiment: microbe, parasite or virus in culture
Conditions: Severe acute respiratory syndrome coronavirus 2, Vero C1008, 48 h

Compound | IC50 [µM] | IC50 (read-out: pIC50 (converted)) [µM]
CN1C2CCC1CC(O)C2 (stereo unspecified) | > 20 | > 20
C[C@H](Cc1ccc2c(c1)OC(C(=O)O)(C(=O)O)O2)NC[C@H](O)c1cccc(Cl)c1 | > 20 | > 20
O=C(O)C1CC(O)CN1 (stereo unspecified) | > 20 | > 20
CC[C@H]1OC(=O)[C@H](C)C(=O)[C@H](C)[C@@H](O[C@@H]2O[C@H](C)C[C@H](N(C)C)[C@H]2O)[C@](C)(OC)C[C@@H](C)C(=O)[C@H](C)[C@@H]2N(CCCCn3cnc(-c4cccnc4)c3)C(=O)O[C@@]21C | > 20 | > 20
CC(=O)N[C@@H]1[C@@H](O[C@H](C)C(=O)O)[C@H](O)[C@@H](CO)O[C@@H]1O | > 20 | > 20
CN1CC(O)C2=CC(=O)C(=O)C=C21 (stereo unspecified) | > 20 | > 20
Fc1ccc(C(c2ccc(F)cc2)N2CCN(C/C=C\c3ccccc3)CC2)cc1 | > 20 | > 20
CC(=O)OCC(=O)[C@H]1CC[C@H]2[C@@H]3CC=C4C[C@@H](O)CC[C@]4(C)[C@H]3CC[C@]12C | > 20 | > 20
COc1cccc(C=O)c1O | > 20 | > 20
CCCCCCCCCCCCCCCC(=O)OCC(O)C1OC(=O)C(O)=C1O (stereo unspecified) | > 20 | > 20
CC(C)(C)CC(C)(C)c1ccc(OCOCCOCCO)c(Cc2cc(C(C)(C)CC(C)(C)C)cc(Cc3cc(C(C)(C)CC(C)(C)C)ccc3OCOCCOCCO)c2OCOCCOCCO)c1 | > 20 | > 20
COc1ccc2c(c1)C(C(=O)N(Cc1ccc(N(C)C)cc1)c1ccc(C(C)C)cc1)CCC2 (stereo unspecified) | > 20 | > 20
Clc1ccc(CO[C@H](Cn2ccnc2)c2ccc(Cl)cc2Cl)c(Cl)c1 | > 20 | > 20
CCC(CC)CC(=O)c1c(C(=O)OC)c(-c2ccc(OC)c(OC)c2)c2c(OC)c(OC)c(OC)cc2c1O | > 20 | > 20
CN1C(CC(O)c2ccccc2)CCCC1CC(O)c1ccccc1 (stereo unspecified) | > 20 | > 20
CCCN(CCC)CCc1ccc(OC)c(OCCc2ccccc2)c1 | > 20 | > 20
CCCc1nn(C)c2c(=O)[nH]c(-c3cc(S(=O)(=O)N4CCN(C)CC4)ccc3OCC)nc12 | > 20 | > 20
CCOc1ncc(S(=O)(=O)N2CCN(CC)CC2)cc1-c1nc2c(CC)n(CCOC)nc2c(=O)[nH]1 | > 20 | > 20
CCOC(=O)C1=CCCC[C@@H]1S(=O)(=O)Nc1ccc(F)cc1Cl | > 20 | > 20
Cc1cccc(C)c1NC(=O)C1(N(C)C)CCN([C@H]2CCCC[C@@H]2O)CC1 | > 20 | > 20
CCOC(=O)Nc1ccc(SC[C@H]2CO[C@](Cn3ccnc3)(c3ccc(Cl)cc3Cl)O2)cc1 | > 20 | > 20
O=C(Nc1cccc2c(=O)cc(-c3nnn[nH]3)oc12)c1ccc(OCCCCc2ccccc2)cc1 | > 100 | > 100
COC(=O)N[C@H](C(=O)N1CC2(CC2)C[C@H]1c1nc(-c2ccc3c(c2)C(F)(F)c2cc(-c4ccc5[nH]c([C@@H]6[C@H]7CC[C@H](C7)N6C(=O)[C@@H](NC(=O)OC)C(C)C)nc5c4)ccc2-3)c[nH]1)C(C)C | > 20 | > 20

Compound | IC50 [µM] | IC50 (read-out: pIC50 (converted)) [µM]
NCC1CCC(C(=O)Oc2ccc(CCC(=O)O)cc2)CC1 (stereo unspecified) | > 20 | > 20
CNC(CC(=O)O)C(=O)O (stereo unspecified) | > 20 | > 20
Nc1nc(O)c2ncn([C@@H]3O[C@H](CO)[C@@H](O)[C@H]3F)c2n1 | > 20 | > 20
O=C(NCCN1CCN(c2cccc3c2OC[C@@H](CO)O3)CC1)c1ccc(F)cc1 | > 20 | > 20
COc1cc2c(cc1OC)C(C)NCC2 (stereo unspecified) | > 20 | > 20
O=C(NC[C@H](O)CN1CCc2ccccc2C1)c1cc(NC2COC2)ncn1 | > 20 | > 20
CCOC(=O)C1=C(CN2CCOCC2)NC(c2nccs2)=N[C@H]1c1ccc(F)cc1Br | > 20 | > 20
CC(=O)N[C@@H](Cc1ccccc1)C(=O)N[C@H]1CCCNC(=O)[C@H](CCCN=C(N)N)NC(=O)[C@H](Cc2c[nH]c3ccccc23)NC(=O)[C@@H](CC2CCCCC2)NC(=O)[C@@H]2CCCN2C1=O | > 20 | > 20
O=C(O)CNC(=O)c1nc(Cl)c2ccccc2c1O | > 20 | > 20
O=P(O)(O)OC[C@H]1OC(O)[C@H](O)[C@@H](O)[C@@H]1O (stereo partly specified) | > 20 | > 20
CC(=O)N[C@@H](C=O)[C@@H](O)[C@H](O)[C@H](O)CO | > 20 | > 20
CC(C)OC(=O)[C@H](C)N[P@@](=O)(OC[C@@]1(F)O[C@@H](n2ccc(=O)[nH]c2=O)[C@](C)(O)[C@@H]1O)Oc1ccccc1 | > 20 | > 20
NS(=O)(=O)NCc1csc2ccccc12 | > 20 | > 20
COc1ccc2c(c1)[C@H]1C[C@@]1(C(=O)N1C3CCC1CN(C)C3)Cn1c-2c(C2CCCCC2)c2ccc(C(=O)NS(=O)(=O)N(C)C)cc21 | > 20 | > 20
C[C@H]1C(O)O[C@@H]2O[C@@]3(C)CC[C@H]4[C@H](C)CCC1[C@@]24OO3 (stereo partly specified) | > 20 | > 20
CCC(=O)OC(CC(=O)O)C[N+](C)(C)C (stereo unspecified) | > 20 | > 20
NC(=O)CNC1Cc2ccccc2C1 | > 20 | > 20
O=C(O)Cc1ccc(OCCNCC(O)c2ccccc2)cc1 (stereo unspecified) | > 20 | > 20
CN1CCO[C@@H](c2ccccc2)c2ccccc2C1 | > 20 | > 20
COc1ccc2c(c1)CC[C@@H](CN(C)CC(=O)O)[C@H]2c1ccccc1 | > 20 | > 20
O=C1N[C@@H](C(=O)O)CS1 | > 20 | > 20
C/C(=C(\OCCOc1ccc(Cl)cc1)c1ccc(Cl)cc1Cl)n1ccnc1 | > 20 | > 20
[2H]C1([2H])[C@H]2C[C@@H]([C@@H]1Oc1ccc(C(F)(F)F)cn1)N(C(=O)c1cccc(F)c1-c1ncccn1)C2([2H])[2H] | > 20 | > 20

Compound | IC50 [µM] | IC50 (read-out: pIC50 (converted)) [µM]
C=C1CC[C@H]2[C@@H](/C=C(/C)C(=O)[C@@]3(OC(C)=O)C[C@H](C)[C@H](OC(=O)c4ccccc4)[C@@H]3[C@H]1OC(C)=O)C2(C)C | > 20 | > 20
CC(CCC(=O)O)C1CCC2C3CC[C@@H]4C[C@H](O)CC[C@]4(C)C3C[C@H](O)[C@]12C (stereo partly specified) | > 20 | > 20
[2H]C1([2H])COc2ccc(Cc3cc([C@@H]4O[C@H](CO)[C@@H](O)[C@H](O)[C@H]4O)ccc3CC)cc2O1 | > 20 | > 20
CC(=O)OC[C@@]1(O)C[C@@]23CC[C@@H]4c5ccoc5CC[C@@]4(C)[C@@H]2CC[C@H]1C3 | > 20 | > 20
CN[C@H]1CCN(c2cc(NCC3CC3)nc(N)n2)C1 | > 20 | > 20
CC(C(=O)O)c1ccc2oc(-c3ccc(F)cc3)nc2c1 (stereo unspecified) | > 20 | > 20
COc1cccc(C2(CCCN(C)C)C(=O)NC(=O)CC2(C)C)c1 (stereo unspecified) | > 20 | > 20
CN[C@@H]1[C@H](O[C@H]2[C@H](O[C@@H]3[C@@H](O)[C@H](O)[C@@H](NC(=N)N)[C@H](O)[C@H]3NC(=N)N)O[C@@H](C)[C@]2(O)CO)O[C@@H](CO)[C@H](O)[C@H]1O | > 20 | > 20
CC1(O)/C=C\C=C(\CO)C2CC(C)(C)C2(O)CC1 (stereo unspecified) | > 20 | > 20
CC(C)CC(NC(=O)C(Cc1ccccc1)NC(=O)CNC(=O)[C@H](C)NC(=O)C(N)Cc1ccc(O)cc1)C(=O)N[C@H](CCCNC(=N)N)C(=O)O (stereo partly specified) | > 20 | > 20
C=C(C)[C@@H]1[C@@H]2OC(=O)[C@H]1[C@]1(O)C[C@H]3O[C@]34C(=O)O[C@H]2[C@]14C.CC(C)(O)[C@@H]1[C@@H]2OC(=O)[C@H]1[C@]1(O)C[C@H]3O[C@]34C(=O)O[C@H]2[C@]14C | > 20 | > 20
CC[C@H]1C2C[C@H]3[C@@H]4N(C)c5ccccc5[C@]45C[C@H](C2[C@H]5O)N3[C@@H]1O (stereo partly specified) | > 20 | > 20
Cc1noc(-c2ccc(-c3ccc(C4(C(=O)O)CC4)cc3)cc2)c1NC(=O)O[C@@H](C)c1ccccc1 | > 20 | > 20
C[C@@H]1[C@H](O)[C@@H](C)\C=C/C=C\C=C/C=C\C=C/C=C\C=C/[C@H](O[C@@H]2O[C@H](C)[C@@H](O)[C@H](N)[C@@H]2O)C[C@@H]2O[C@](O)(C[C@@H](O)C[C@@H](O)[C@H](O)CC[C@@H](O)C[C@@H](O)CC(=O)O[C@H]1C)C[C@H](O)[C@H]2C(=O)O | > 20 | > 20
N=C(N)NCCCNC(=O)[C@@H]1CCCCN1C(=O)[C@H](CC1CCCCC1)NCC(=O)O | > 20 | > 20
CN(C)c1ccc(-c2ccc3cc(OC[C@@H](O)CF)ccc3n2)cc1 | > 20 | > 20
CC12CCC(=O)C[C@@H]1CCC1C2CCC2(C)C1CCC2(C)O (stereo partly specified) | > 20 | > 20
CC[C@H](C)[C@H]1O[C@]2(C=C[C@@H]1C)C[C@@H]1C[C@@H](C/C=C(/C)[C@@H](O[C@H]3C[C@H](OC)[C@@H](O[C@H]4C[C@H](OC)[C@@H](O)[C@H](C)O4)[C@H](C)O3)[C@@H](C)/C=C\C=C3\CO[C@@H]4[C@H](O)C(C)=C[C@@H](C(=O)O1)[C@]34O)O2 | > 20 | > 20
CCN(Cc1ccccc1)C(=O)Cn1c(=O)n(C)c2cnc(-c3ccccc3)nc21 | > 20 | > 20
O=C(OC1Cc2c(O)cc(O)cc2O[C@@H]1c1ccc(O)c(O)c1)c1cc(O)c(O)c(O)c1 (stereo partly specified) | > 20 | > 20
NS(=O)(=O)c1ccc(N2CCN(CC[C@H]3OCCc4ccccc43)CC2)cc1 | > 20 | > 20
C=CC1=C(C(=O)O)N2C(=O)[C@@H](NC(=O)/C(=N\O)c3csc(N)n3)[C@H]2SC1 | > 20 | > 20
